Measured values reported in patent US20240173432A1, “Compositions and Methods for Treatment of Myotonic Dystrophy Type 1 with CRISPR/SluCas9” (Vertex Pharmaceuticals Incorporated, priority 2021, published 2024).

Experiments:
[1] = test system: CTG repeat in the 3′ UTR of human DMPK gene; experiment: Dual-cut screening: CTG repeat excision efficiency by loss-of-signal ddPCR; type: cell-based; conditions: sgRNA pair, primary DM1 patient myoblasts; for Excision efficiency (by ddPCR): 3 μM DNA-PKi Compound 6 for 48 hours; for Excision efficiency by ddPCR (Vehicle): vehicle (DMSO)
Procedure, shortened: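 Upstream and downstream SluCas9 RNPs (20 pmol protein, 60 pmol sgRNA each) mixed 1:1 and nucleofected into primary DM1 patient myoblasts, then treated 48 h with DMSO or 3 μM DNA-PKi Compound 6. Genomic DNA taken 72 h post-nucleofection; excision read as loss of target signal by ddPCR versus a DMPK exon 1 reference.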

[2] = test system: CUG foci in primary DM1 patient myoblasts; experiment: Dual-cut screening: FISH staining of CUG RNA foci; type: cell-based, human; conditions: sgRNA pair, primary DM1 patient myoblasts; for % of CUG foci free nuclei (DNA-PKi): 3 μM DNA-PKi Compound 6 for 48 hours; for % of CUG foci free nuclei (Vehicle): vehicle (DMSO)
Procedure, shortened: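 SluCas9 RNPs (protein:sgRNA 1:3; 20 pmol SluCas9 + 60 pmol sgRNA per guide, paired 1:1) nucleofected into primary DM1 patient myoblasts, then DMSO or 3 μM DNA-PKi Compound 6 for 48 h. At 72 h post-nucleofection cells fixed, FISH-stained with Cy3-PNA(CAG)5 probe plus anti-MBNL1 and Hoechst; % CUG foci-free nuclei by high-content confocal imaging.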

Row | Substance | Excision efficiency (by ddPCR) [1] | Excision efficiency by ddPCR (Vehicle) [1] | % of CUG foci free nuclei (DNA-PKi) [2] | % of CUG foci free nuclei (Vehicle) [2]
1 | SluU64 + SluD73 (guide 1 GGGCTCGAAGGGTCCTTGTAGC; guide 2 CCAAAACGTGGATTGGGGTTGT; guide RNA; listed as DNA, chemistry not fully specified) | 74.77 | 50.69 | 91.02% | 70.19%
2 | SluU64 + SluD83 (guide 1 GGGCTCGAAGGGTCCTTGTAGC; guide 2 GTGGGGACAGACAATAAATACC; guide RNA; listed as DNA, chemistry not fully specified) | 78.97 | 55.22 | 90.63% | 76.55%
3 | SluU64 + SluD100 (guide 1 GGGCTCGAAGGGTCCTTGTAGC; guide 2 GTCCAGAGCTTTGGGCAGATGG; guide RNA; listed as DNA, chemistry not fully specified) | 68.22 | 45.16 | 85.89% | 69.88%
